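How tested: cells in 96-well plates exposed to compound for 48 hours at five concentrations. GI50: concentration for 50% inhibition of growth. TGI is the concentration that stops growth completely.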
Key:
Test in all cases: DTP human tumour cell line panel, 48 h
[1] = system: 786-0 renal
[2] = system: A498 renal
[3] = system: A549 NSCLC
[4] = system: ACHN renal
[5] = system: BT-549 breast
[6] = system: CAKI-1 renal
[7] = system: CCRF-CEM leukemia
[8] = system: COLO 205 colon
[9] = system: DU-145 prostate
[10] = system: HCC-2998 colon
[11] = system: HCT-116 colon
[12] = system: HCT-15 colon
[13] = system: HL-60(TB) leukemia
[14] = system: HOP-62 NSCLC
[15] = system: HOP-92 NSCLC
[16] = system: HS 578T breast
[17] = system: HT29 colon
[18] = system: IGROV1 ovarian
[19] = system: K-562 leukemia
[20] = system: KM12 colon
[21] = system: LOX IMVI melanoma
[22] = system: M14 melanoma
[23] = system: MALME-3M melanoma
[24] = system: MCF7 breast
[25] = system: MDA-MB-435
[26] = system: MOLT-4 leukemia
[27] = system: NCI-H226 lung
[28] = system: NCI-H23 lung
[29] = system: NCI-H460 lung
[30] = system: NCI-H522 lung
[31] = system: NCI/ADR-RES ovarian
[32] = system: OVCAR-3 ovarian
[33] = system: OVCAR-4 ovarian
[34] = system: OVCAR-5 ovarian
[35] = system: OVCAR-8 ovarian
[36] = system: PC-3 prostate
[37] = system: RPMI-8226 leukemia
[38] = system: RXF 393 renal
[39] = system: SF-268 CNS
[40] = system: SF-295 CNS
[41] = system: SF-539 CNS
[42] = system: SK-MEL-2 melanoma
[43] = system: SK-MEL-28 melanoma
[44] = system: SK-MEL-5 melanoma
[45] = system: SK-OV-3 ovarian
[46] = system: SN12C renal
[47] = system: SNB-19 CNS
[48] = system: SNB-75 CNS
[49] = system: SR leukemia
[50] = system: SW-620 colon
[51] = system: T-47D breast
[52] = system: TK-10 renal
[53] = system: U251 CNS
[54] = system: UACC-257 melanoma
[55] = system: UACC-62 melanoma
[56] = system: UO-31 renal

Structure (SMILES): Cc1ccc2c(n1)C(=O)C(Cl)=C(Nc1cccc(C(F)(F)F)c1)C2=O
- GI50 [1]: 1.8 µM
- TGI [1]: 3.55 µM
- GI50 [2]: 13.8 µM
- TGI [2]: 27.9 µM
- GI50 [3]: 20.1 µM
- TGI [3]: 50 µM
- GI50 [4]: 1.78 µM
- TGI [4]: 3.31 µM
- GI50 [5]: 2.16 µM
- TGI [5]: 5.47 µM
- GI50 [6]: 1.58 µM
- TGI [6]: 3.01 µM
- GI50 [7]: 1.46 µM
- TGI [7]: 4.71 µM
- GI50 [8]: 1.82 µM
- TGI [8]: 3.78 µM
- GI50 [9]: 1.8 µM
- TGI [9]: 3.31 µM
- GI50 [10]: 2.6 µM
- TGI [10]: 6.48 µM
- GI50 [11]: 1.51 µM
- TGI [11]: 3.22 µM
- GI50 [12]: 1.66 µM
- TGI [12]: 3.55 µM
- GI50 [13]: 1.5 µM
- TGI [13]: 3.68 µM
- GI50 [14]: 17 µM
- TGI [14]: 31.8 µM
- GI50 [15]: 1.91 µM
- TGI [15]: 3.89 µM
- GI50 [16]: 15.1 µM
- TGI [16]: 85.6 µM
- GI50 [17]: 2.6 µM
- TGI [17]: 6.63 µM
- GI50 [18]: 1.87 µM
- TGI [18]: 3.6 µM
- GI50 [19]: 0.31 µM
- TGI [19]: 1.3 µM
- GI50 [20]: 15.9 µM
- TGI [20]: 32.3 µM
- GI50 [21]: 1.51 µM
- TGI [21]: 3.33 µM
- GI50 [22]: 1.92 µM
- TGI [22]: 4.39 µM
- GI50 [23]: 1.79 µM
- TGI [23]: 3.61 µM
- GI50 [24]: 1.85 µM
- TGI [24]: 4.66 µM
- GI50 [25]: 1.95 µM
- TGI [25]: 3.91 µM
- GI50 [26]: 1.69 µM
- TGI [26]: 5.38 µM
- GI50 [27]: 2.57 µM
- TGI [27]: 11.5 µM
- GI50 [28]: 1.82 µM
- TGI [28]: 4.67 µM
- GI50 [29]: 18.4 µM
- TGI [29]: 40.8 µM
- GI50 [30]: 2.03 µM
- TGI [30]: 5.12 µM
- GI50 [31]: 2.65 µM
- TGI [31]: 7.88 µM
- GI50 [32]: 1.68 µM
- TGI [32]: 3.11 µM
- GI50 [33]: 1.56 µM
- TGI [33]: 3.27 µM
- GI50 [34]: 6.03 µM
- TGI [34]: 22.1 µM
- GI50 [35]: 2.68 µM
- TGI [35]: 8.93 µM
- GI50 [36]: 2.9 µM
- TGI [36]: 11.5 µM
- GI50 [37]: 1.92 µM
- TGI [37]: 5.91 µM
- GI50 [38]: 1.61 µM
- TGI [38]: 3 µM
- GI50 [39]: 4.76 µM
- TGI [39]: 19.6 µM
- GI50 [40]: 16.3 µM
- TGI [40]: 31.2 µM
- GI50 [41]: 3.18 µM
- TGI [41]: 10.3 µM
- GI50 [42]: 2.38 µM
- TGI [42]: 5.73 µM
- GI50 [43]: 1.95 µM
- TGI [43]: 3.66 µM
- GI50 [44]: 2.75 µM
- TGI [44]: 7.84 µM
- GI50 [45]: 14.2 µM
- TGI [45]: 27.6 µM
- GI50 [46]: 2.16 µM
- TGI [46]: 5.66 µM
- GI50 [47]: 16 µM
- TGI [47]: 45.3 µM
- GI50 [48]: 13 µM
- TGI [48]: 27.4 µM
- GI50 [49]: 1.56 µM
- TGI [49]: 5 µM
- GI50 [50]: 2.05 µM
- TGI [50]: 4.89 µM
- GI50 [51]: 1.93 µM
- TGI [51]: 4.8 µM
- GI50 [52]: 2.01 µM
- TGI [52]: 3.52 µM
- GI50 [53]: 6.45 µM
- TGI [53]: 24.8 µM
- GI50 [54]: 1.65 µM
- TGI [54]: 3.24 µM
- GI50 [55]: 4.28 µM
- TGI [55]: 18.4 µM
- GI50 [56]: 1.54 µM
- TGI [56]: 2.95 µM

Reference: PubChem BioAssay (NCI)
